This passage reports MIC results from patent US9321788B2, “Tricyclic antibiotics” (BASILEA PHARMACEUTICA AG, priority 2011, dated 2016).

SMILES strings stand for the structures. Where only a bound is given, the exact number is not on record here.

The subject of one assay is Escherichia coli ATCC25922. The experiment in a line: Antimicrobial activity assay (MIC, broth microdilution). It is filed as cell-based. Here is the method: (§1) Antimicrobial Activity Assay
The antibacterial activity of compounds is determined by the minimal inhibitory concentration (MIC) method. MICs for all bacteria except pneumococci and Haemophilus influenzae are obtained by broth microdilution with cation-adjusted Mueller-Hinton broth (CAMHB; BBL), according to CLSI guidelines (National Committee for Clinical Laboratory Standards. 2003. Methods for dilution antimicrobial susceptibility tests for bacteria that grow aerobically, 5th ed.; a approved standard M7-A6. National Committee for Clinical Laboratory Standards, Wayne, Pa.), with the following modifications: (i) for pneumococci CAMHB is supplemented with 5% (^v/v) horse serum; (ii) for Haemophilus influenzae CAMHB is supplemented with 5% (^v/v) Fildes enrichment (BBL) (Pankuch, G. A., Hoellman, D. B., Lin, G., Bajaksouzian, S., Jacobs, M. R., and Appelbaum, P. C. 1998. Activity of HMR 3647 compared to those of five agents against Haemophilus influenzae and Moraxella catarrhalis by MIC determination and time-kill assay. Antimicrob. Agents Chemother. 42:3032-3034). Microtiter plates are incubated at 35° C. in ambient air for 20 to 24 h, then inspected using an illuminated microtiter plate reader fitted with a magnifying mirror (MIC 2000; Cooke Laboratory Products, Alexandria, Va.). […]
Background: In broth dilution the organism is exposed to a series of concentrations in liquid medium.
As a reminder, the MIC is the lowest concentration that inhibits growth of the organism. A higher MIC goes with a need for much substance. `COc1ccc2ncc3c(c2n1)CC(CN1CCC(NC(=O)c2ccc4c(c2)NC(=O)CS4)CC1)CO3` (stereo not drawn) [Example 1, 3-oxo-3,4-dihydro-2H-benzo[1,4]thiazine-6-carboxylic acid [1-(6-methoxy-3,4-dihydro-2H-1-oxa-5,9-diaza-phenanthren-3-ylmethyl)-piperidin-4-yl]-amide] displayed an MIC of no more than 8 µg/mL.

In the next assay the test system is Streptococcus pneumoniae ATCC49619. The experiment in a line: Antimicrobial activity assay (MIC, broth microdilution, CAMHB with 5% horse serum). It is filed as cell-based. The procedure:
as §1
The antibacterial activity of compounds is determined by the minimal inhibitory concentration (MIC) method. MICs for all bacteria except pneumococci and Haemophilus influenzae are obtained by broth microdilution with cation-adjusted Mueller-Hinton broth (CAMHB; BBL), according to CLSI guidelines (National Committee for Clinical Laboratory Standards. 2003. Methods for dilution antimicrobial susceptibility tests for bacteria that grow aerobically, 5th ed.; a approved standard M7-A6. National Committee for Clinical Laboratory Standards, Wayne, Pa.), with the following modifications: (i) for pneumococci CAMHB is supplemented with 5% (^v/v) horse serum; (ii) for Haemophilus influenzae CAMHB is supplemented with 5% (^v/v) Fildes enrichment (BBL) (Pankuch, G. A., Hoellman, D. B., Lin, G., Bajaksouzian, S., Jacobs, M. R., and Appelbaum, P. C. 1998. Activity of HMR 3647 compared to those of five agents against Haemophilus influenzae and Moraxella catarrhalis by MIC determination and time-kill assay. Antimicrob. Agents Chemother. 42:3032-3034). Microtiter plates are incubated at 35° C. in ambient air for 20 to 24 h, then inspected using an illuminated microtiter plate reader fitted with a magnifying mirror (MIC 2000; Cooke Laboratory Products, Alexandria, Va.). Compounds of the present invention are tested against several bacteria strains comprising some Acinetobacter baumannii, Enterococcus faecalis, Enterococcus faecium, Escherichia coli, Haemophilus influenzae, Klebsiella pneumoniae, Pseudomonas aeruginosa, Staphylococcus aureus, Staphylococcus epidermidis, Streptococcus pyogenes; Enterobacter cloacae and Streptococcus pneumoniae.
As to `COc1ccc2ncc3c(c2c1)OC(CN1CC(NC(=O)c2ccc4c(c2)NC(=O)CS4)C1)C3` (stereo not drawn) [Example 39, 3-oxo-3,4-dihydro-2H-benzo[1,4]thiazine-6-carboxylic acid [1-(8-methoxy-2,3-dihydro-furo[3,2-c]quinolin-2-ylmethyl)-azetidin-3-yl]-amide], the MIC is no more than 8 µg/mL.

`COc1ccc2ncc3c(c2c1)CC(CN1CC(NC(=O)c2ccc4c(c2)NC(=O)CS4)CC1CO)CS3` (stereo not drawn) [Example 51, 3-oxo-3,4-dihydro-2H-benzo[1,4]thiazine-6-carboxylic acid [5-hydroxymethyl-1-(6-methoxy-3,4-dihydro-2H-1-thia-9-aza-phenanthren-3-ylmethyl)-pyrrolidin-3-yl]-amide] yielded an MIC of no more than 8 µg/mL.

Take `COc1ccc2ncc3c(c2c1)CC(CN1CC(NC(=O)c2ccc4c(c2)NC(=O)CS4)C1)CS3` (stereo not drawn) [Example 49, 3-oxo-3,4-dihydro-2H-benzo[1,4]thiazine-6-carboxylic acid [1-(6-methoxy-3,4-dihydro-2H-1-thia-9-aza-phenanthren-3-ylmethyl)-azetidin-3-yl]-amide]: the MIC was no more than 8 µg/mL.

Consider `COc1ccc2ncc3c(c2c1F)CC(CN1CCC(NC(=O)c2ccc4c(c2)NC(=O)CS4)CC1)CO3` (stereo not drawn) [Example 45, 3-oxo-3,4-dihydro-2H-benzo[1,4]thiazine-6-carboxylic acid [1-(5-fluoro-6-methoxy-3,4-dihydro-2H-1-oxa-9-aza-phenanthren-3-ylmethyl)-piperidin-4-yl]-amide], for which the MIC is no more than 8 µg/mL.

`COc1ccc2ncc3c(c2c1)CC(Cn1cc(NC(=O)c2ccc4c(c2)NC(=O)CS4)cn1)CO3` (stereo not drawn) [Example 31, 3-oxo-3,4-dihydro-2H-benzo[1,4]thiazine-6-carboxylic acid [1-(6-methoxy-3,4-dihydro-2H-1-oxa-9-aza-phenanthren-3-ylmethyl)-1H-pyrazol-4-yl]-amide]: the MIC was no more than 8 µg/mL.

Consider `COc1ccc2ncc3c(c2c1)CC(C(O)[C@H]1CC[C@H](NC(=O)c2ccc4c(c2)NC(=O)CS4)CC1)O3` (relative stereo) [Example 59, 3-oxo-3,4-dihydro-2H-benzo[1,4]thiazine-6-carboxylic acid {trans-4-[hydroxy-(8-methoxy-1,2-dihydro-furo[2,3-c]quinolin-2-yl)-methyl]-cyclohexyl}-amide], for which the MIC was no more than 8 µg/mL.

On to `COc1ccc2ncc3c(c2n1)CC(CN1CCC(NC(=O)c2ccc4c(c2)NC(=O)CS4)CC1)O3` (stereo not drawn) [Example 54, 3-oxo-3,4-dihydro-2H-benzo[1,4]thiazine-6-carboxylic acid [1-(8-methoxy-1,2-dihydro-3-oxa-5,9-diaza-cyclopenta[a]naphthalen-2-ylmethyl)-piperidin-4-yl]-amide], for which the MIC is no more than 8 µg/mL.

In turn, `COc1ccc2ncc3c(c2c1)CC(CN1CCC(NC(=O)c2ccc4c(c2)NC(=O)CS4)CC1)O3` (stereo not drawn) [Example 55, 3-oxo-3,4-dihydro-2H-benzo[1,4]thiazine-6-carboxylic acid [1-(8-methoxy-1,2-dihydro-furo[2,3-c]quinolin-2-ylmethyl)-piperidin-4-yl]-amide] displayed an MIC of no more than 8 µg/mL.

`COc1ccc2ncc3c(c2c1)CC(C[C@H]1CC[C@H](NC(=O)c2ccc4c(c2)NC(=O)CO4)CC1)CO3` (relative stereo) [Example 36, 3-oxo-3,4-dihydro-2H-benzo[1,4]oxazine-6-carboxylic acid [trans-4-(6-methoxy-3,4-dihydro-2H-1-oxa-9-aza-phenanthren-3-ylmethyl)-cyclohexyl]-amide] had an MIC of no more than 8 µg/mL.

`COc1ccc2ncc3c(c2c1)CC(CN1CCC(NCc2ccc4c(c2)NC(=O)CS4)CC1)CO3` (stereo not drawn) [Example 34, 6-{[1-(6-methoxy-3,4-dihydro-2H-1-oxa-9-aza-phenanthren-3-ylmethyl)-piperidin-4-ylamino]-methyl}-4H-benzo[1,4]thiazin-3-one] had an MIC of no more than 8 µg/mL.

`COc1ccc2ncc3c(c2n1)CC(CN1CCC(NC(=O)c2ccc4c(c2)NC(=O)CS4)CC1)CO3` (stereo not drawn) [Example 1, 3-oxo-3,4-dihydro-2H-benzo[1,4]thiazine-6-carboxylic acid [1-(6-methoxy-3,4-dihydro-2H-1-oxa-5,9-diaza-phenanthren-3-ylmethyl)-piperidin-4-yl]-amide] showed an MIC of no more than 8 µg/mL.
